Laboratory results from a compilation of properties of binary mixtures (doi:10.1039/c7cp04078d).

Test: xn = mol fraction of the nth substance listed
Conditions: 303.15 K, 100 kPa

Structure (SMILES) | viscosity (x2 = 0) | viscosity (x2 = 0.1) | viscosity (x2 = 0.2) | viscosity (x2 = 0.33) | viscosity (x2 = 0.5) | viscosity (x2 = 0.67) | viscosity (x2 = 0.8) | viscosity (x2 = 0.9)
CC(=O)[O-].CCCC[N+](CCCC)(CCCC)CCCC + CC(=O)O | 680 mPa·s | 460 mPa·s | 297 mPa·s | 169 mPa·s | 83 mPa·s | 41 mPa·s | 25 mPa·s | 19 mPa·s
CC(=O)[O-].CCCC[N+](CCCC)(CCCC)CCCC + CCCCN | 680 mPa·s | 390 mPa·s | – | 78 mPa·s | 28 mPa·s | 16 mPa·s | 11 mPa·s | 9 mPa·s
